{
  "source": "paper PMC2360244",
  "about": "(British Journal of Cancer, 2007)",
  "key": {"[1]": {"test_system": "microvessel outgrowth from rat aortic rings", "assay": "Rat aortic ring assay (angiogenesis)", "format": "cell-based, Sprague-Dawley rats", "settings": "192 h, 300 nM, 8 days, compared to controls, mean±s.e.m., read-out: inhibition of total microvessel area", "description": "Briefly, thoracic aorta were freshly isolated from 1- to 2-month-old Sprague–Dawley rats and 1-mm-long sections (aortic rings) were embedded in fibrin gel clots in six-well plates. […] Test compounds were added at the indicated concentrations at day 0 and again together with fresh media on day 2 and day 5 of culture. The ability of experimental compounds to inhibit microvessel outgrowth was compared directly with vehicle-treated control rings. […] Microvessel area, expressed as pixels^2, was determined for each aortic ring and the per cent inhibition of microvessel area compared to control rings was calculated using the mean values for each treatment group. Statistical differences between experimental groups (five independent rings) were analysed by ANOVA and Dunnett's t-test, with a P-value of <0.05 or less considered statistically significant."}, "[2]": {"test_system": "A2780 ovarian carcinoma cells", "assay": "A2780 tumour cell proliferation, MTT colorimetric assay", "format": "cell-based, human", "settings": "Homo sapiens, A2780, 96 h, 4 days, mean±s.d.", "procedure": "(§1) Control cells were treated with the combined respective vehicle."}, "[3]": {"test_system": "HCT116 colon carcinoma xenograft", "assay": "HCT116 colon xenograft, tumour growth", "format": "in vivo, mice", "settings": "median tumour size at end of study", "procedure": "All mice used in the in vivo studies were athymic male NMRI nu/nu mice purchased from Janvier (France) and were treated according to the ethical guidelines prescribed by UKCCCR. A2780 ovarian, HCT116 colon and H460 lung carcinoma cells were injected s.c. (10^7 cells per 200 μl) into the inguinal region of Nude mice. […] Tumour size was determined using caliper measurement and tumour volume was determined by using the formula: TV=(a^2 × b)/2 (in which a represents the width and b the length).\nMice were treated orally once daily (q.d.) between day 4 and 28 (A2780) or between day 4 and 32 (H460 and HCT116). (A) A2780 ovarian tumours were measured at least twice a week throughout the study, and results are represented as the median tumour size, expressed in mm^3, of each individual group (n=10). (B) Mice were treated orally q.d. at the indicated doses. Results are represented as the treated/control values (%) of the median tumour size (n=10) at the end of the study."}, "p21waf1,cip1 promoter": {"test_system": "p21waf1,cip1 promoter", "assay": "p21waf1,cip1 promoter activity in vivo, A2780-p21waf1,cip1ZsGreen xenograft", "design": "species or system mice", "settings": "40 mpk p.o. once, 24 h after dosing", "procedure": "To generate an HDAC inhibitor-responsive p21^waf1,cip1 promoter construct, the –1300 to +88 region of the p21^waf1,cip1 promoter was cloned into pGL3-basic-ZsGreen and stably transfected into A2780 ovarian carcinoma cells ([Belien et al, 2006]). For in vivo analysis of p21^waf1,cip1 promoter activity, A2780-p21^waf1,cip1ZsGreen cells were injected s.c. (10^7 cells per 200 μl) into the inguinal region of Nude mice and caliper-measurable tumours were obtained after 12 days. […] Tumours were collected using transcardial perfusion fixation with 4% paraformaldehyde. Cryosections of 10-μm thickness were mounted on glass slides and air-dried for 30 min at room temperature. Bodipy 558/568-phalloidin staining was performed on whole mounts to visualise actin (background cell staining). ZsGreen fluorescence was evaluated with an Axioplan 2 (Zeiss, Germany) equipped with Epiplan-Neofluar objectives and an Axiocam camera. CD-31 (CY3) immunofluorescent labelling was performed on whole mounts to visualise the endothelium of blood vessels.\n(A) Tumours were harvested 4 h after the last dose. Nuclei are stained with Hoechst, while (CY3) immunofluorescent labelling was performed to visualise acetylated H3. Representative sections from […] independent mice are shown. (B) and (C) Tumours were collected after 24 h using transcardial perfusion fixation with 4% paraformaldehyde. […]"}, "[4]": {"test_system": "ALL, AML, CLL, CML, lymphoma and myeloma tumour cells", "assay": "cells", "settings": "Homo sapiens, read-out: IC50 values, proliferation of haematological tumour cells (range over panel)", "description": "(§2) The effect of HDAC inhibitors on cell proliferation was measured using an MTT (3-(4,5-dimethyl-2-thiazolyl)-2,5-diphenyl-2H-tetrazolium bromide)-based assay (Serva, Heidelberg, Germany). Cells were seeded in Falcon or NUNC 96-well culture plates (Life Technologies, Merelbeke, Belgium) in 100 μl culture medium and allowed to adhere to plastic for 18–48 h. Test compounds were dissolved in DMSO and further dilutions were made in culture medium, with final concentrations of DMSO never exceeding 0.1% (v v^−1), and incubated for 4 days. Proliferation of NSCLC was assessed using Alamar Blue-based assay. Cells were seeded in COSTAR 384-well culture plates in 45 μl culture medium and allowed to adhere to plastic for 24 h. Alamar blue was added after 72 h, with the exception of HCC-15, HCC-44, NCI-H2122 and NCI-H460, where Alamar blue was added after 90 h and OD values were measured at 4 days following compound exposure. Data are presented as mean±s.d. of three independent experiments."}, "[5]": {"test_system": "primary human mammary epithelial cells (HMEC)", "assay": "cells", "procedure": "as §1"}, "HUVECs": {"test_system": "HUVECs", "assay": "cells", "settings": "Homo sapiens, HUVEC, read-out: IC50, growth of HUVECs", "procedure": "as §1"}, "[6]": {"test_system": "A2780 ovarian carcinoma cells", "assay": "Annexin V staining (apoptosis), FACS", "format": "cell-based, human", "settings": "48 h, concentration-dependent", "procedure": "Human A2780 ovarian carcinoma cells were seeded at 2 × 10^6 cells per 75-cm^2 flask and, after 24 h, incubated with the indicated concentration of test compound for 48 h. The cells were subsequently collected, centrifuged and washed with PBS. The cell pellets were stained with Annexin-V-FITC antibody and propidium iodide with a kit from PharMingen, BD Biosciences, Erembodegem, Belgium (cat 66121E).\nCells were stained with Annexin V (Pharmingen) and propidium iodide, and analysed by FACS. […] Membrane-damaged cells were defined as both Annexin V- and propidium iodide-positive. Shown are mean values±variation for two independent experiments. […] Green asterisks represent mitotic cells, while red arrows point at specific DNA fragmentation. (B) Rat Aortic Ring Assays were performed as described in the Methods section."}, "[7]": {"test_system": "lung, breast, colon, prostate and ovarian tumour cell lines", "assay": "cells", "settings": "Homo sapiens, 96 h, read-out: IC50 values, cell proliferation of solid tumour cell lines (range over panel), lung, breast, colon, prostate and ovarian tumour cell lines; 4-day incubation", "description": "as §2"}, "[8]": {"test_system": "tubulin acetylation and Hsp70 in A2780 ovarian carcinoma cells", "assay": "Western blot of acetylated tubulin and Hsp70 in A2780 cells (HDAC6 readout)", "format": "cell-based, human", "settings": "24 h, western blot", "procedure": "Human A2780 ovarian carcinoma cells were incubated with the indicated concentrations of HDAC inhibitors. Total cell lysates were prepared and analysed by SDS–PAGE. […] To control for equal loading, blots were stripped and re-probed with mouse monoclonal antiactin IgM (Ab-1, Oncogene Research products, Merck, Darmstadt, Germany). […] Protein–antibody complexes were then visualised by chemiluminescence (Pierce Chemical Co., Perbioscience, Erembodegem, Belgium) or fluorescence (Odyssey) according to manufacturer's instructions.\nTotal cell lysates were prepared and analysed by SDS–PAGE. Levels of acetylated H3 and tubulin, and of total levels of H3 and tubulin and of p21^waf1, cip1 and Hsp70 and c-raf protein, were detected using rabbit polyclonal and mouse monoclonal antibodies, followed by ECL detection as indicated in the Methods section. To control for equal loading, blots were stripped and re-probed with antibodies against actin and the nuclear protein Lamin B1. A representative experiment out of three is shown."}},
  "note": "Like-named read-outs stand apart in the source and are kept apart here.",
  "data": [
    {"smiles": "O=C(NO)c1cnc(N2CCN(S(=O)(=O)c3ccc4ccccc4c3)CC2)nc1", "note": "[R306465]", "values": [
      {"measurement": "inhibition at 0.3 µM", "setting": "[1]", "value": "67 ± 7", "unit": "%"},
      {"measurement": "IC50", "setting": "[2]", "value": "39 ± 17", "unit": "nM"},
      {"measurement": "T/C values (%) HCT116 colon", "setting": "[3]; 10 mpk p.o. q.d. day 4 to 32", "value": 76, "unit": "%"},
      {"measurement": "T/C values (%) HCT116 colon", "setting": "[3]; 20 mpk p.o. q.d. day 4 to 32", "value": 75, "unit": "%"},
      {"measurement": "T/C values (%) HCT116 colon", "setting": "[3]; 30 mpk p.o. q.d. day 4 to 32", "value": 57, "unit": "%"},
      {"measurement": "T/C values (%) HCT116 colon", "setting": "[3]; 40 mpk p.o. q.d. day 4 to 32", "value": 34, "unit": "%"},
      {"measurement": "p21waf1,cip1 promoter activation (ZsGreen fluorescence) in tumour sections", "setting": "p21waf1,cip1 promoter", "value": "large number of fluorescing cells"},
      {"measurement": "IC50", "setting": "[4]", "value": "15 to 486", "unit": "nM"},
      {"measurement": "IC50", "setting": "[5]; read-out: IC50, primary HMEC proliferation", "value": "32 ± 9.7", "unit": "nM"},
      {"measurement": "IC50", "setting": "[5]; read-out: IC50, quiescent non-proliferative HMEC cells", "value": "7820 ± 435", "unit": "nM"},
      {"measurement": "IC50", "setting": "HUVECs", "value": "186 ± 23", "unit": "nM"},
      {"measurement": "percentage of cells positive for Annexin V", "setting": "[6]", "value": "significant increase"},
      {"measurement": "IC50", "setting": "[7]", "value": "30 to 300", "unit": "nM"},
      {"measurement": "concentration at which tubulin acetylation and Hsp70 levels increase", "setting": "[8]", "value": 1, "unit": "µM"}
    ]}
  ]
}
